Results: paper PMC8552465 (ACS Omega, 2021)
Values joined by “and” are separate entries in the source; they are usually repeats but may differ in a detail not shown here. Identical values can stand only once. “Also recorded” adds a separate entry of the source.

Columns and labels:
AChE = AChE (Electrophorus electricus, UniProt O42275); test: AChE inhibition assay; format: biochemical
MAO-B [1] = molecular target: T1, MAO-B (Homo sapiens, UniProt P27338); test: Kinetics of MAO-B inhibition; format: biochemical
T1 sequence (P27338 1-520): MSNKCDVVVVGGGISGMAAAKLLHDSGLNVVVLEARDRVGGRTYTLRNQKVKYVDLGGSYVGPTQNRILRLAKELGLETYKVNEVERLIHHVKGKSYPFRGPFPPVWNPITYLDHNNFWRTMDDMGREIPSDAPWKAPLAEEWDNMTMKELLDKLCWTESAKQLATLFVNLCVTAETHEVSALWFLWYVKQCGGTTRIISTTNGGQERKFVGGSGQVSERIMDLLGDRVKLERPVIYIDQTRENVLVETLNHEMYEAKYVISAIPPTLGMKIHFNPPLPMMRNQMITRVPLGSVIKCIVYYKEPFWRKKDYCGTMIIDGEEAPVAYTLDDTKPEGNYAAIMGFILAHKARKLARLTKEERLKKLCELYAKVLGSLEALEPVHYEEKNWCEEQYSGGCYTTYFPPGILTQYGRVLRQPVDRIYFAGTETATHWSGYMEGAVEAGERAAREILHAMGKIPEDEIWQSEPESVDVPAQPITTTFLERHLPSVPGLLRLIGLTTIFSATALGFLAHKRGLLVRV

BChE [2] = molecular target: T2, BChE (Equus caballus, UniProt P81908); test: Kinetics of BChE inhibition; format: biochemical, equine
T2 sequence (P81908 whole entry): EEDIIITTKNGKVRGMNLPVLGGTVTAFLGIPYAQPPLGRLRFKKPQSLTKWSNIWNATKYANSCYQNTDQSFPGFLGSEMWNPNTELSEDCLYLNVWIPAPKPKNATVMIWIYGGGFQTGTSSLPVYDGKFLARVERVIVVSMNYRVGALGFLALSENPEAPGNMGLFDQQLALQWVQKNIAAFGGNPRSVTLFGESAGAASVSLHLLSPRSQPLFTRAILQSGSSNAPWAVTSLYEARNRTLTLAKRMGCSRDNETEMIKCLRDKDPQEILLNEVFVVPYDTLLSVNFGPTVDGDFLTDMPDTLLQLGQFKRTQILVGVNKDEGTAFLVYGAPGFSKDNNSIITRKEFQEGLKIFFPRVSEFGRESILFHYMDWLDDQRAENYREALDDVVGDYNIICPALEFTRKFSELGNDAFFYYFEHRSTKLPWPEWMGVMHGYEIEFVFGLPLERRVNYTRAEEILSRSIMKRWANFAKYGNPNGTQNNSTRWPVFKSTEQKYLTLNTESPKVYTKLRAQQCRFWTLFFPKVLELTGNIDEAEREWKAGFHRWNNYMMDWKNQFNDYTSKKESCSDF

Vero cells = test: In vitro toxicity by MTT on Vero cells
[3] = In vitro toxicity by MTT on Vero cells; conditions: African green monkey, Vero cells (African green monkey kidney epithelial cells), Vero cell viability, up to 100 μg/mL, 48 h, MTT
MAO-B [4] = molecular target: T1, MAO-B; test: MAO-B inhibition assay; format: biochemical; conditions: read-out: residual activity at 10 μM (%) MAO-B
BChE [5] = molecular target: T2, BChE; test: Reversibility of BChE inhibition by dialysis; format: biochemical, equine
recombinant human MAO-A = molecular target: T3, recombinant human MAO-A (Homo sapiens, UniProt P21397); test: MAO-A inhibition assay; format: biochemical
T3 sequence (P21397 1-527): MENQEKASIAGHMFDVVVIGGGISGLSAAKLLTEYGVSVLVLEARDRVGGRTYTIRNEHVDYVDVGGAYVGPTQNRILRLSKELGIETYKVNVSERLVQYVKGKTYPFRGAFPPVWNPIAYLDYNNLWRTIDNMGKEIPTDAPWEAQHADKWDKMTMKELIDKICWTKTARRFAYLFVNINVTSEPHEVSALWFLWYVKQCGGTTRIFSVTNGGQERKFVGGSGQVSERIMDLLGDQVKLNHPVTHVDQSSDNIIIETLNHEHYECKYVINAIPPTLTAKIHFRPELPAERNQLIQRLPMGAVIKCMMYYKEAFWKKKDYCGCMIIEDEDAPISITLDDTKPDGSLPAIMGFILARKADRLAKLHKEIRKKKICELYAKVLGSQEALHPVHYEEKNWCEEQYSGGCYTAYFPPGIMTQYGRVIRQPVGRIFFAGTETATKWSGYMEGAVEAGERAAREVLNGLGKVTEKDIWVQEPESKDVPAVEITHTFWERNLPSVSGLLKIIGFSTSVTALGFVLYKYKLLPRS

BACE-1 = BACE-1 (Homo sapiens, UniProt P56817); test: BACE-1 activity detection kit; format: biochemical; conditions: read-out: residual activity at 10 μM (%) BACE-1
Sequence of BACE-1 (P56817 46-501): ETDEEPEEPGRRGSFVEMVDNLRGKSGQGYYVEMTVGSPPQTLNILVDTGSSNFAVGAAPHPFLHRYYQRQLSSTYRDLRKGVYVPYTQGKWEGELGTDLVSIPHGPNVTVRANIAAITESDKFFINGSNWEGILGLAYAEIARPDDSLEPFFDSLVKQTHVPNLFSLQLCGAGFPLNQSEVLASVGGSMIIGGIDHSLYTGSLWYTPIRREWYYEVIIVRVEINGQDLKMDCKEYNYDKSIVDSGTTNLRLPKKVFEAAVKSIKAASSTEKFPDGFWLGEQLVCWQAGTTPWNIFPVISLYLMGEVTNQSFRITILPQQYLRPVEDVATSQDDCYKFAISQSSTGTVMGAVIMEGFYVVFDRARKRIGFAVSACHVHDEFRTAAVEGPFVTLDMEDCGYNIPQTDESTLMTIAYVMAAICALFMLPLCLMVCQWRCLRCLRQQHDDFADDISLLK

BChE [6] = molecular target: T2, BChE; test: BChE inhibition assay; format: biochemical, equine
MAO-B [7] = molecular target: T1, MAO-B; test: Reversibility of MAO-B inhibition by dialysis; format: biochemical
[8] = Lineweaver–Burk and secondary plots

Sequence of AChE (O42275 24-633): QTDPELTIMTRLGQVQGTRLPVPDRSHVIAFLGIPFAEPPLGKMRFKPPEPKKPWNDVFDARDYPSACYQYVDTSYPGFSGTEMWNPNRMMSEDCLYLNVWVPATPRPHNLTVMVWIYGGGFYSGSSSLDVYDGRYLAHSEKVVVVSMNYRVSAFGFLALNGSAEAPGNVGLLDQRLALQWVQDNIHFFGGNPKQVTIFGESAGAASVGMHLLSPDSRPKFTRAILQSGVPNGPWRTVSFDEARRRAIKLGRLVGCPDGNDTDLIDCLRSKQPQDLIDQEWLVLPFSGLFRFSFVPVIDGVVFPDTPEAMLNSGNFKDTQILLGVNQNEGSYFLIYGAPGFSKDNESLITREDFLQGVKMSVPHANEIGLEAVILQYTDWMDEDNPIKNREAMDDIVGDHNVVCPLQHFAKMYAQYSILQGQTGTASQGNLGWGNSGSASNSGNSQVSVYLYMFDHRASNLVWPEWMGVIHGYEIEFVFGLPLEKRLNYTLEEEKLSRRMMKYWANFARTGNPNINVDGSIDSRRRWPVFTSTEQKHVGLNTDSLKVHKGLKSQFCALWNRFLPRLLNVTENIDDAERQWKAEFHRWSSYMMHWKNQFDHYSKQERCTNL

O=C(/C=C/c1ccccc1Cl)c1cc2ccccc2oc1=O [CC2, 3-[(2E)-3-(2-chlorophenyl)prop-2-enoyl]-2H-1-benzopyran-2-one]
IC50 (AChE; IC50 (μM) AChE, means ± standard errors, reference compounds after preincubation for 30 min with enzymes): 40.1 ± 0.12 µM
remaining activity at 10 µM (AChE; read-out: residual activity at 10 μM (%) AChE, 10 μM): 69.4 ± 3.6%
Ki (MAO-B [1]): 0.53 ± 0.04 µM
type of MAO-B inhibition (MAO-B [1]; [8]): competitive
Ki (BChE [2]): 2.84 ± 0.09 µM
type of BChE inhibition (BChE [2]; [8]): competitive
IC50 (Vero cells; Chlorocebus sabaeus, Vero, 48 h, read-out: IC50 Vero cell viability): 142 µg/mL and 456 µM
Vero cell viability (Vero cells; up to 100 μg/mL, 48 h, MTT): > 70%
toxicity for Vero cells (Vero cells; up to a concentration of 100 μg/mL): nontoxic; also recorded: not toxic
viability at 48 h, 100 μg/mL [3]: ~70%
remaining activity at 10 µM (MAO-B [4]): 19.8 ± 5.9%
reversibility of BChE inhibition (BChE [5]): reversible
IC50 (recombinant human MAO-A): > 40 µM
remaining activity at 10 µM (recombinant human MAO-A; read-out: residual activity at 10 μM (%) MAO-A): 76.6 ± 1.8%
remaining activity at 10 µM (BACE-1): 61.1 ± 1%
IC50 (BChE [6]): 7 ± 0.02 µM
residual activity at 10 μM (%) BChE (BChE [6]; 10 μM): 43.9 ± 3.7%
remaining activity at 10 µM (BChE [6]; read-out: residual activity at 10 μM (%) BChE, 10 μM): < 50%
reversibility of MAO-B inhibition (MAO-B [7]): reversible
